Source: article PMC4643811, “Structural basis of Lewis^b antigen binding by the Helicobacter pylori adhesin BabA” (Science Advances, 2015)
Where two headings read alike, the source gives them in different places.

Tests used:
[1] = target: T1, BabA (extracellular domain, H. pylori J99) (Helicobacter pylori, UniProt Q9ZKV2); experiment: isothermal titration calorimetry; type: binding
T1 construct: N-terminal extracellular domain, amino acids 10-527 of mature BabA; three C-terminal tags (6xLys-c-Myc-6xHis) kept; periplasmic expression in E. coli XL10 Gold; beta-barrel membrane domain absent
T1 sequence (Q9ZKV2 entry or part of it): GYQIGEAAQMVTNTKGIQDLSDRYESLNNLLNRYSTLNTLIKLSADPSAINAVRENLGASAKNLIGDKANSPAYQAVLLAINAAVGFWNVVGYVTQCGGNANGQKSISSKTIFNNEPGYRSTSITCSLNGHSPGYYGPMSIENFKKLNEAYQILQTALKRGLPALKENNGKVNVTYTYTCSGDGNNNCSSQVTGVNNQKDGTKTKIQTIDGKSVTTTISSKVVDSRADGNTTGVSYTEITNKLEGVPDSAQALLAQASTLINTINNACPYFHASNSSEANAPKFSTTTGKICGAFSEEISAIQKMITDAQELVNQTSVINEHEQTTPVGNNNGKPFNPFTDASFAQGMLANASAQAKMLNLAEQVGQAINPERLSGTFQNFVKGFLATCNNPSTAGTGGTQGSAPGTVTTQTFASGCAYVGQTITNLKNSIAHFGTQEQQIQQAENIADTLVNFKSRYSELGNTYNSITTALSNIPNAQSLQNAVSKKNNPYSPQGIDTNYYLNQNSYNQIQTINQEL

[2] = target: BabA (extracellular domain, H. pylori J99) (Helicobacter pylori, UniProt Q9ZKV2, N226A); conditions: pH 7.4, 25°C; protein 0.25 mM, glycan 10 mM
Chain of BabA (extracellular domain, H. pylori J99) (Helicobacter pylori, UniProt Q9ZKV2, N226A) (Q9ZKV2 30-547 N226A): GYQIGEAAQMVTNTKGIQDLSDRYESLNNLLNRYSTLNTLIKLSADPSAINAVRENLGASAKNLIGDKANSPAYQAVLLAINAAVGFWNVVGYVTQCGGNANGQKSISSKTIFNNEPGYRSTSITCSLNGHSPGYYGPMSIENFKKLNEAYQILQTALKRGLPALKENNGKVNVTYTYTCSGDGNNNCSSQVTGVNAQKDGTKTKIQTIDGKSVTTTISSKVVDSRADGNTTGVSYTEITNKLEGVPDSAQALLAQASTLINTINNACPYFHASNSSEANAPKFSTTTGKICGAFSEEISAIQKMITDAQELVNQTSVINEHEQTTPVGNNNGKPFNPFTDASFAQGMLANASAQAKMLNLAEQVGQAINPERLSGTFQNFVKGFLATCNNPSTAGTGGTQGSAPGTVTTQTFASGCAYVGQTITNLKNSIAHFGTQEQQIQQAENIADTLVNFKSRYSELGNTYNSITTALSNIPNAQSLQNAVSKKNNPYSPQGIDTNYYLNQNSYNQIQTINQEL

Molecule	Kd ([1]; pH 7.4, 25°C, protein 0.25 mM, glycan 10 mM, read-out: KD) [µM]	Kd [2] [µM]	Kd ([1]; pH 7.4, 20 mM tris-Cl, 300 mM NaCl, 25°C, single site) [µM]
H-1 antigen	~617		
CC(=O)N[C@H]1[C@H](O[C@H]2[C@@H](O)[C@@H](CO)O[C@@H](O[C@H]3[C@H](O)[C@@H](O)C(O)O[C@@H]3CO)[C@@H]2O)O[C@H](CO)[C@@H](O[C@@H]2O[C@@H](C)[C@@H](O)[C@@H](O)[C@@H]2O)[C@@H]1O[C@@H]1O[C@H](CO)[C@H](O)[C@H](O)[C@H]1O[C@@H]1O[C@@H](C)[C@@H](O)[C@@H](O)[C@@H]1O (stereo partly drawn) [Le^b]		~582	~252
